Measurements reported in patent US6562993B1, “Preservative compounds” (ISP Investments Inc., priority 2002, dated 2003).

Tests used:
Assay in all cases: Minimum Inhibitory Concentration (MIC) Test, serial dilution
Format in all cases: cell-based
[1] = tested on: Aspergillus niger ATCC 16404; conditions: A. niger; weight percent of active ingredients; propylene glycol solvent
Method: (§1) The Minimum Inhibitory Concentration (MIC) Test is an in vitro serial dilution procedure to assess antimicrobial activity. The MIC of a substance is the minimum concentration that will inhibit the growth of test organisms. Two species each of bacteria and fungi were included in the evaluation.
(§2) Cultiloop™ transfer cultures were used, and the bacteria were cultured on Brain Heart Infusion agar for 24 hours at 37° C. A saline suspension of each bacterial species was prepared and standardized on the spectrophotometer to the organism inoculum concentration. The yeast culture (Candida) was grown on a slant of Saboraud Dextrose agar for 48 hours at 27° C., and the slant was then washed with saline to prepare the inoculum. The mold culture (Aspergillus) was incubated for 7-10 days at 27° C. until sporulation occurred. The mold inoculum was prepared by washing the mature slant and harvesting the spores after filtration through sterile gauze.
(§3) The results are summarized in the Table below, where the concentrations refer to the weight percents of active ingredients.

[2] = tested on: Burkholderia cepacia ATCC 25416; conditions: B. cepacia; weight percent of active ingredients; propylene glycol solvent
Method: as §1, §2, §3

[3] = tested on: Candida albicans ATCC 10231; conditions: C. albicans; weight percent of active ingredients; propylene glycol solvent
Method: as §1, §2, §3

[4] = tested on: Staphylococcus aureus ATCC 6538; conditions: S. aureus; weight percent of active ingredients; propylene glycol solvent
Method: as §1, §2, §3

Structure (SMILES) | MIC Cidal [1] [%] | MIC Static [1] [%] | MIC Cidal [2] [%] | MIC Static [2] [%] | MIC Cidal [3] [%] | MIC Static [3] [%] | MIC Cidal [4] [%] | MIC Static [4] [%]
CC(Br)(C#N)CCC#N (stereo not shown) [Compound II, 2-bromo-2-methylglutaronitrile] | 0.10 | <0.05 | <0.05 | <0.05 | <0.05 | <0.05 | 0.10 | <0.05
N#CCCC(Br)(C#N)CBr (stereo not shown) [Merguard ®, 1,2-dibromo-2,4-dicyanobutane] | <0.05 | <0.05 | <0.05 | <0.05 | <0.05 | <0.05 | <0.05 | <0.05
